Laboratory results as given in ChEMBL document CHEMBL1201862, “PubChem BioAssay data set” (2004).
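Tested at 5 concentrations; 48 h exposure; 96-well plates; endpoints linearly interpolated, else capped at highest concentration. The concentration for 50% growth inhibition is given as GI50.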 Active and inactive are the calls of the source. Cut-off read from the data, not from the text of the source: active = GI50 up to about 1.1 µM and inactive = higher.

What was measured:
Test in all cases: inhibition of tumour cell growth, NCI panel, 48 h
[1] = tested on: CAKI-1
[2] = tested on: PC-3
[3] = tested on: CCRF-CEM
[4] = tested on: NCI-H522
[5] = tested on: BT-549
[6] = tested on: HCT-15
[7] = tested on: DU-145
[8] = tested on: HOP-92
[9] = tested on: SF-539
[10] = tested on: NCI/ADR-RES
[11] = tested on: SW-620
[12] = tested on: Hs-578T
[13] = tested on: SNB-19
[14] = tested on: HT-29

Compound | GI50 [1] | GI50 [2] | GI50 [3] | GI50 [4] | GI50 [5] | GI50 [6] | GI50 [7] | GI50 [8] | GI50 [9] | GI50 [10] | GI50 [11] | GI50 [12] | GI50 [13] | GI50 [14]
C=CC(C)CCC(C/C=C(\C)CCCC(C)C)C(=C)CCCC(C)C (stereo not given) | > 100 µM (inactive) | > 100 µM (inactive) | > 100 µM (inactive) | > 100 µM (inactive) | > 100 µM (inactive) | > 100 µM | > 100 µM (inactive) | > 100 µM (inactive) | > 100 µM (inactive) | > 100 µM (inactive) | > 100 µM (inactive) | > 100 µM (inactive) | > 100 µM (inactive) | –
OC1(C(O)(c2ccc(-c3ccccc3)cc2)c2ccc(-c3ccccc3)cc2)CCCCC1 | > 100 µM (inactive) | > 100 µM (inactive) | – | > 100 µM (inactive) | > 100 µM (inactive) | 23 µM | > 100 µM (inactive) | > 100 µM (inactive) | > 100 µM (inactive) | > 100 µM (inactive) | > 100 µM (inactive) | > 100 µM (inactive) | > 100 µM (inactive) | 87.9 µM (inactive)
Sc1ncnc2c1ncn2Cc1ccco1 | > 100 µM (inactive) | > 100 µM (inactive) | – | > 100 µM (inactive) | > 100 µM (inactive) | > 100 µM | > 100 µM (inactive) | > 100 µM (inactive) | > 100 µM (inactive) | > 100 µM (inactive) | > 100 µM (inactive) | > 100 µM (inactive) | > 100 µM (inactive) | > 100 µM (inactive)
C=C1c2nc3ccccc3n2C=C(c2ccc(OC)cc2)N1c1ccccc1 | 37.8 µM (inactive) | 9.12 µM (inactive) | 3.66 µM (inactive) | 2.21 µM (inactive) | 6.64 µM (inactive) | 3.1 µM | 28.6 µM (inactive) | 30.2 µM (inactive) | 6.67 µM (inactive) | 2.34 µM (inactive) | 3.66 µM (inactive) | 14.4 µM (inactive) | 11.3 µM (inactive) | 9.68 µM (inactive)
O=S(=O)(N/N=C1\CC2CCC1C2)c1ccccc1 (stereo not given) | > 100 µM (inactive) | > 100 µM (inactive) | > 100 µM (inactive) | > 100 µM (inactive) | > 100 µM (inactive) | > 100 µM | > 100 µM (inactive) | > 100 µM (inactive) | – | > 100 µM (inactive) | > 100 µM (inactive) | > 100 µM (inactive) | > 100 µM (inactive) | > 100 µM (inactive)
Nc1nc(N)nc(CC(=O)O)n1 | > 100 µM (inactive) | > 100 µM (inactive) | > 100 µM (inactive) | > 100 µM (inactive) | > 100 µM (inactive) | > 100 µM | > 100 µM (inactive) | > 100 µM (inactive) | > 100 µM (inactive) | > 100 µM (inactive) | > 100 µM (inactive) | > 100 µM (inactive) | > 100 µM (inactive) | > 100 µM (inactive)
COc1cc(OC)cc(Oc2nc3ccc(C(F)(F)F)cc3nc2-c2ccccc2)c1 | > 100 µM (inactive) | > 100 µM (inactive) | > 100 µM (inactive) | > 100 µM (inactive) | > 100 µM (inactive) | > 100 µM | > 100 µM (inactive) | > 100 µM (inactive) | > 100 µM (inactive) | > 100 µM (inactive) | > 100 µM (inactive) | > 100 µM (inactive) | – | 60 µM (inactive)
COc1ccc(/C=C/C(=N/NC(=O)N/N=C(/C=C/c2ccc(OC)cc2)C(C)(C)CN2CCCCC2)C(C)(C)CN2CCCCC2)cc1 | 1.83 µM (inactive) | 2.28 µM (inactive) | 1.27 µM (inactive) | 2.07 µM (inactive) | 1.98 µM (inactive) | 3.12 µM | > 10 µM (inactive) | 1.47 µM (inactive) | 2.28 µM (inactive) | 1.97 µM (inactive) | 2.11 µM (inactive) | 1.87 µM (inactive) | 2.61 µM (inactive) | 1.58 µM (inactive)
C/C=C(/C)C(=O)OC1CC(C)[C@H]2CC(=O)C(C)=C2CC1C(C)(C)OC(C)=O (stereo not given in full) | 37.1 µM (inactive) | 31.3 µM (inactive) | 25.6 µM (inactive) | 19.5 µM (inactive) | 31 µM (inactive) | 19.7 µM | 81.1 µM (inactive) | 19.6 µM (inactive) | 20.7 µM (inactive) | 22.8 µM (inactive) | 43.7 µM (inactive) | 35.4 µM (inactive) | 34.4 µM (inactive) | 35.5 µM (inactive)
COc1ccc(N2C(=O)C(Cl)C2c2cc3cc(Br)ccc3nc2Cl)cc1 (stereo not given) | 6.32 µM (inactive) | 7.13 µM (inactive) | 1.86 µM (inactive) | 3.81 µM (inactive) | 4.46 µM (inactive) | 4.71 µM | 7.46 µM (inactive) | 8.38 µM (inactive) | 5.07 µM (inactive) | 5.41 µM (inactive) | 5.55 µM (inactive) | 11.5 µM (inactive) | 9.93 µM (inactive) | 4.68 µM (inactive)
